Measured values as given in PubChem BioAssay (NCI).
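Each compound was tested at five concentrations against cells in 96-well plates for 48 hours. TGI: total growth inhibition.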

Legend:
Assay in all cases: growth of human tumour cells (NCI), 48 h
786-0 renal = system: 786-0 renal
A498 renal = system: A498 renal
A549 NSCLC = system: A549 NSCLC
ACHN renal = system: ACHN renal
BT-549 breast = system: BT-549 breast
CAKI-1 renal = system: CAKI-1 renal
CCRF-CEM leukemia = system: CCRF-CEM leukemia
COLO 205 colon = system: COLO 205 colon
DU-145 prostate = system: DU-145 prostate
EKVX NSCLC = system: EKVX NSCLC
HCC-2998 colon = system: HCC-2998 colon
HCT-116 colon = system: HCT-116 colon
HCT-15 colon = system: HCT-15 colon
HL-60(TB) leukemia = system: HL-60(TB) leukemia
HOP-62 NSCLC = system: HOP-62 NSCLC
HOP-92 NSCLC = system: HOP-92 NSCLC
HS 578T breast = system: HS 578T breast
HT29 colon = system: HT29 colon
IGROV1 ovarian = system: IGROV1 ovarian
K-562 leukemia = system: K-562 leukemia
KM12 colon = system: KM12 colon
LOX IMVI melanoma = system: LOX IMVI melanoma
M14 melanoma = system: M14 melanoma
MALME-3M melanoma = system: MALME-3M melanoma
MCF7 breast = system: MCF7 breast
MDA-MB-231 breast = system: MDA-MB-231 breast
MDA-MB-435 = system: MDA-MB-435
MDA-N = system: MDA-N
MOLT-4 leukemia = system: MOLT-4 leukemia
NCI-H226 lung = system: NCI-H226 lung
NCI-H23 lung = system: NCI-H23 lung
NCI-H460 lung = system: NCI-H460 lung
OVCAR-3 ovarian = system: OVCAR-3 ovarian
OVCAR-4 ovarian = system: OVCAR-4 ovarian
OVCAR-5 ovarian = system: OVCAR-5 ovarian
OVCAR-8 ovarian = system: OVCAR-8 ovarian
PC-3 prostate = system: PC-3 prostate
RPMI-8226 leukemia = system: RPMI-8226 leukemia
RXF 393 renal = system: RXF 393 renal
SF-268 CNS = system: SF-268 CNS
SF-295 CNS = system: SF-295 CNS
SF-539 CNS = system: SF-539 CNS
SK-MEL-2 melanoma = system: SK-MEL-2 melanoma
SK-MEL-28 melanoma = system: SK-MEL-28 melanoma
SK-MEL-5 melanoma = system: SK-MEL-5 melanoma
SK-OV-3 ovarian = system: SK-OV-3 ovarian
SN12C renal = system: SN12C renal
SNB-19 CNS = system: SNB-19 CNS
SNB-75 CNS = system: SNB-75 CNS
SR leukemia = system: SR leukemia
SW-620 colon = system: SW-620 colon
T-47D breast = system: T-47D breast
TK-10 renal = system: TK-10 renal
U251 CNS = system: U251 CNS
UACC-62 melanoma = system: UACC-62 melanoma
UO-31 renal = system: UO-31 renal
NCI-H522 lung = system: NCI-H522 lung
UACC-257 melanoma = system: UACC-257 melanoma

In the case of `CCOC(=O)NC(Nc1ccc(S(=O)(=O)Nc2nc(C)cc(C)n2)cc1)(C(=O)OCC)C(F)(F)F` (stereo unspecified), the TGI (786-0 renal) is reported as > 100 µM, the TGI (A498 renal) is reported as > 100 µM and the TGI (A549 NSCLC) is reported as > 100 µM. For the same compound, the TGI (ACHN renal) was > 100 µM, the TGI (BT-549 breast) was > 100 µM and the TGI (CAKI-1 renal) was > 100 µM. For the same compound, the TGI (CCRF-CEM leukemia) was > 100 µM, the TGI (COLO 205 colon) was > 100 µM and the TGI (DU-145 prostate) was > 100 µM. For the same compound, the TGI (EKVX NSCLC) was > 100 µM, the TGI (HCC-2998 colon) was > 100 µM and the TGI (HCT-116 colon) was > 100 µM. The TGI (HCT-15 colon) was > 100 µM, the TGI (HL-60(TB) leukemia) was > 100 µM and the TGI (HOP-62 NSCLC) was > 100 µM. For the same compound, the TGI (HOP-92 NSCLC) was > 100 µM, the TGI (HS 578T breast) was > 100 µM and the TGI (HT29 colon) was > 100 µM. The TGI (IGROV1 ovarian) was > 100 µM, the TGI (K-562 leukemia) was > 100 µM and the TGI (KM12 colon) was > 100 µM. The TGI (LOX IMVI melanoma) was > 100 µM, the TGI (M14 melanoma) was > 100 µM and the TGI (MALME-3M melanoma) was > 100 µM. For the same compound, the TGI (MCF7 breast) was > 100 µM, the TGI (MDA-MB-231 breast) was > 100 µM and the TGI (MDA-MB-435) was > 100 µM. For the same compound, the TGI (MDA-N) was > 100 µM, the TGI (MOLT-4 leukemia) was > 100 µM and the TGI (NCI-H226 lung) was > 100 µM. The TGI (NCI-H23 lung) was > 100 µM, the TGI (NCI-H460 lung) was > 100 µM and the TGI (OVCAR-3 ovarian) was > 100 µM. For the same compound, the TGI (OVCAR-4 ovarian) was > 100 µM, the TGI (OVCAR-5 ovarian) was > 100 µM and the TGI (OVCAR-8 ovarian) was > 100 µM. For the same compound, the TGI (PC-3 prostate) was > 100 µM, the TGI (RPMI-8226 leukemia) was > 100 µM and the TGI (RXF 393 renal) was > 100 µM. The TGI (SF-268 CNS) was > 100 µM, the TGI (SF-295 CNS) was > 100 µM and the TGI (SF-539 CNS) was > 100 µM. The TGI (SK-MEL-2 melanoma) was > 100 µM, the TGI (SK-MEL-28 melanoma) was > 100 µM and the TGI (SK-MEL-5 melanoma) was > 100 µM. For the same compound, the TGI (SK-OV-3 ovarian) was > 100 µM, the TGI (SN12C renal) was > 100 µM and the TGI (SNB-19 CNS) was > 100 µM. For the same compound, the TGI (SNB-75 CNS) was > 100 µM, the TGI (SR leukemia) was 27.4 µM and the TGI (SW-620 colon) was > 100 µM. For the same compound, the TGI (T-47D breast) was > 100 µM, the TGI (TK-10 renal) was > 100 µM and the TGI (U251 CNS) was > 100 µM. For the same compound, the TGI (UACC-62 melanoma) was > 100 µM and the TGI (UO-31 renal) was > 100 µM.
`COC(=O)C1=C(C(=O)NNc2ccccc2)N(c2cccnc2Cl)C(c2ccccc2)=CC1c1ccccc1` (stereo unspecified) was tested, and the TGI (786-0 renal) was > 100 µM, the TGI (A498 renal) was > 100 µM and the TGI (A549 NSCLC) was > 100 µM. For the same compound, the TGI (ACHN renal) was > 100 µM, the TGI (BT-549 breast) was > 100 µM and the TGI (CAKI-1 renal) was > 100 µM. The TGI (CCRF-CEM leukemia) was > 100 µM, the TGI (COLO 205 colon) was > 100 µM and the TGI (DU-145 prostate) was > 100 µM. For the same compound, the TGI (EKVX NSCLC) was > 100 µM, the TGI (HCC-2998 colon) was > 100 µM and the TGI (HCT-116 colon) was > 100 µM. For the same compound, the TGI (HCT-15 colon) was > 100 µM, the TGI (HL-60(TB) leukemia) was > 100 µM and the TGI (HOP-62 NSCLC) was > 100 µM. The TGI (HS 578T breast) was > 100 µM, the TGI (HT29 colon) was > 100 µM and the TGI (IGROV1 ovarian) was > 100 µM. For the same compound, the TGI (K-562 leukemia) was > 100 µM, the TGI (KM12 colon) was > 100 µM and the TGI (LOX IMVI melanoma) was > 100 µM. The TGI (M14 melanoma) was > 100 µM, the TGI (MALME-3M melanoma) was > 100 µM and the TGI (MCF7 breast) was > 100 µM. For the same compound, the TGI (MDA-MB-231 breast) was > 100 µM, the TGI (MDA-MB-435) was > 100 µM and the TGI (MDA-N) was 45.6 µM. For the same compound, the TGI (MOLT-4 leukemia) was 67.2 µM, the TGI (NCI-H226 lung) was > 100 µM and the TGI (NCI-H23 lung) was > 100 µM. For the same compound, the TGI (NCI-H460 lung) was > 100 µM, the TGI (NCI-H522 lung) was > 100 µM and the TGI (OVCAR-3 ovarian) was > 100 µM. The TGI (OVCAR-4 ovarian) was > 100 µM, the TGI (OVCAR-5 ovarian) was > 100 µM and the TGI (OVCAR-8 ovarian) was > 100 µM. The TGI (PC-3 prostate) was > 100 µM, the TGI (RPMI-8226 leukemia) was 82.8 µM and the TGI (SF-268 CNS) was > 100 µM. For the same compound, the TGI (SF-295 CNS) was 56 µM, the TGI (SF-539 CNS) was > 100 µM and the TGI (SK-MEL-2 melanoma) was 76.6 µM. The TGI (SK-MEL-28 melanoma) was > 100 µM, the TGI (SK-MEL-5 melanoma) was > 100 µM and the TGI (SK-OV-3 ovarian) was > 100 µM. The TGI (SN12C renal) was > 100 µM, the TGI (SNB-19 CNS) was > 100 µM and the TGI (SNB-75 CNS) was > 100 µM. For the same compound, the TGI (SR leukemia) was > 100 µM, the TGI (SW-620 colon) was > 100 µM and the TGI (T-47D breast) was > 100 µM. For the same compound, the TGI (TK-10 renal) was > 100 µM, the TGI (U251 CNS) was > 100 µM and the TGI (UACC-257 melanoma) was > 100 µM. The TGI (UACC-62 melanoma) was > 100 µM.
